The text below walks through data of publication PMC6802645, “6′-Sialylgalactose inhibits vascular endothelial growth factor receptor 2-mediated angiogenesis” (Experimental & Molecular Medicine, 2019).

The experiment deals with T1, VEGFR-2 (vascular endothelial growth factor receptor 2) (Homo sapiens, UniProt P35968).
T1 construct: gene KDR; second and third IgG-like domains of VEGFR-2 (VEGFR-2 IG3)
Nature of the experiment: SPR (Biacore T100, VEGFR-2 IG3 immobilized by amine coupling on CM5). It is filed as binding.

By Kd is commonly meant the concentration at which binding is half-saturated.

T1 sequence (P35968 141-320 limits assumed): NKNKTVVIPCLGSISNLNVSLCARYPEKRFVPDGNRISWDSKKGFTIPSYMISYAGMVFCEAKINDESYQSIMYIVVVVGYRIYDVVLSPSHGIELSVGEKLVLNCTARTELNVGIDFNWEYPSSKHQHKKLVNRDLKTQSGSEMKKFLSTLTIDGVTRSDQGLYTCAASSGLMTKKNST

In turn, `CC(=O)N[C@H]1[C@H]([C@H](O)[C@H](O)CO)OC(OC[C@H]2OC(O)[C@H](O)[C@@H](O)[C@H]2O)(C(=O)O)C[C@@H]1O` (some centres unmarked) [6SG, 6′-sialylgalactose] came in with an equilibrium dissociation constant (Kd) of 2.35 nM. In turn, `CC(=O)N[C@H]1[C@H]([C@H](O)[C@H](O)CO)OC(OC[C@H]2O[C@@H](O[C@H]3[C@H](O)[C@@H](O)C(O)O[C@@H]3CO)[C@H](O)[C@@H](O)[C@H]2O)(C(=O)O)C[C@@H]1O` (some centres unmarked) [6SL, 6′-sialyllactose] displayed a dissociation constant (Kd) of 3.05 nM.
